For one series, the target named is HDAC-1 (Homo sapiens, UniProt Q13547). Briefly: Inhibition of Histone Deacetylase Enzymatic (HDAC-1) Activity. The class given is biochemical. As to conditions: Table 21. On the procedure: The following protocol was used to assay the compounds of the invention.
The mixture was pre-incubated for 5 minutes at room temperature. The reaction was started by bringing the temperature to 37° C. and adding 15 μl substrate. Total reaction volume was 50 μl.

Series [1] concerns human colon cancer HCT116 cells. Briefly: MTT Assay. The class given is cell-based. As to conditions: HCT-116, 72 hours, Table 21. Here is the method: Compounds at various concentrations were added to human colon cancer HCT116 cells plated in 96-well plates. Cells were incubated for 72 hours at 37° C. in 5% CO2 incubator. MTT (3-[4,5-dimethylthiazol-2-yl]-2,5 diphenyl tetrazolium bromide, Sigma) was added at a final concentration of 0.5 mg/ml and incubated with the cells for 4 hours before an equal volume of solubilization buffer (50% N,N-dimethylformamide, 20% SDS, pH 4.7) was added onto cultured cells. After overnight incubation, solubilized dye was quantified by colorimetric reading at […] using a reference at 630 nM. OD values were converted to cell numbers according to a standard growth curve of the relevant cell line. The concentration which reduces cell numbers to 50% of those of DMSO-treated cells is determined as MTT IC50.

Series [2] is described as follows: Log D (comparison with previously disclosed compounds). It counts as physicochemical. As to conditions: pH 7.4.

Where only a bound is given, the exact number is not on record here.

Sequence of HDAC-1 (Q13547 whole entry): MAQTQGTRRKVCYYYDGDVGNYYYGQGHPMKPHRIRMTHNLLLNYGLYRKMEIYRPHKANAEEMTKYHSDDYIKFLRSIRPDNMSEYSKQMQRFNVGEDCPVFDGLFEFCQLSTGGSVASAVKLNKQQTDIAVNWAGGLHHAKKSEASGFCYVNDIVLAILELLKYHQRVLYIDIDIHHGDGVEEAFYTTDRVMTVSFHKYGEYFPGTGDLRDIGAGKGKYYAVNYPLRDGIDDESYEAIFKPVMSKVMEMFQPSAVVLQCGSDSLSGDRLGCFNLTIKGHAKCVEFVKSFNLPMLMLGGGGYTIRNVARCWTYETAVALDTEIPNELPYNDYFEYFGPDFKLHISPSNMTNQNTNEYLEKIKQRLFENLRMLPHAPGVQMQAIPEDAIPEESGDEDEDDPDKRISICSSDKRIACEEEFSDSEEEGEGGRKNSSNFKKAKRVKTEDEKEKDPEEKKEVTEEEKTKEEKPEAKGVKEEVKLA

With `CN(C)[C@@H]1CCN(Cc2ccc(C(=O)Nc3cc(-c4cccs4)ccc3N)cc2)C1` [compound 9, (R)—N-(2-Amino-5-(thiophen-2-yl)phenyl)-4-((3-(dimethylamino)pyrrolidin-1-yl)methyl)benzamide], the concentration for half-maximal inhibition (IC50) (on HDAC-1; in series [1]) was less than 1000 nM throughout. Moreover, in series [2], the logD turned out to be 2.11.
For the molecule `COCCN(CCOC)Cc1ccc(C(=O)Nc2cc(-c3cccs3)ccc2N)cc1` [compound 10, N-(2-amino-5-(thiophen-2-yl)phenyl)-4-((bis(2-methoxyethyl)amino)methyl)benzamide], the IC50 (against HDAC-1; in series [1]) was less than 1000 nM in each case. The same molecule registered a logD in series [2] of 3.1.
As to `Nc1ccc(-c2cccs2)cc1NC(=O)c1ccc(CN2CCC[C@@H](O)C2)cc1` [compound 11, (R)-N-(2-amino-5-(thiophen-2-yl)phenyl)-4-((3-hydroxypiperidin-1-yl)methyl)benzamide], the IC50 (at HDAC-1; in series [1]) was less than 1000 nM each time. The logD in series [2] worked out at 3.03.
Regarding `Nc1ccc(-c2cccs2)cc1NC(=O)c1ccc(CN2CCCCC2)cc1` [compound 12, N-(2-amino-5-(thiophen-2-yl)phenyl)-4-(piperidin-1-ylmethyl)benzamide], the half-maximal inhibitory concentration (IC50) is less than 1000 nM against HDAC-1 and 1000 to 5000 nM in series [1]. Also, in series [2], the logD came to 3.86.
In the same order, the values of `COCCN1CCN(Cc2ccc(C(=O)Nc3cc(-c4cccs4)ccc3N)cc2)CC1` [compound 13, N-(2-amino-5-(thiophen-2-yl)phenyl)-4-((4-(2-methoxyethyl)piperazin-1-yl)methyl)benzamide] are less than 1000 nM, less than 1000 nM and 2.22.
In the case of `CCN(C)Cc1ccc(C(=O)Nc2cc(-c3cccs3)ccc2N)cc1` [compound 14, N-(2-amino-5-(thiophen-2-yl)phenyl)-4-((ethyl(methyl)amino)methyl)benzamide], the IC50 (at HDAC-1; in series [1]) was less than 1000 nM throughout. The logD in series [2] stood at 3.2.
As to `CC(C)N1CCN(Cc2ccc(C(=O)Nc3cc(-c4cccs4)ccc3N)cc2)CC1` [compound 15, N-(2-amino-5-(thiophen-2-yl)phenyl)-4-((4-isopropylpiperazin-1-yl)methyl)benzamide], the IC50 (against HDAC-1; in series [1]) was less than 1000 nM throughout. Besides, in series [2], the logD was found to be 2.15.
For `Nc1ccc(-c2cccs2)cc1NC(=O)c1ccc(CN2CCN(C3CCCC3)CC2)cc1` [compound 16, N-(2-amino-5-(thiophen-2-yl)phenyl)-4-((4-cyclopentylpiperazin-1-yl)methyl)benzamide], the 50% inhibitory concentration (IC50) (against HDAC-1; in series [1]) was less than 1000 nM throughout. This molecule also yielded a pH-dependent lipophilicity (logD) in series [2] of 3.3.
For `CN(C)CCN(C)Cc1ccc(C(=O)Nc2cc(-c3cccs3)ccc2N)cc1` [compound 18, N-(2-amino-5-(thiophen-2-yl)phenyl)-4-(((2-(dimethylamino)ethyl)(methyl)amino)methyl)benzamide], the IC50 (at HDAC-1; in series [1]) was less than 1000 nM throughout. This molecule displayed a logD in series [2] of 1.64.
In the case of `Nc1ccc(-c2cccs2)cc1NC(=O)c1ccc(CN2CCC(N3CCOCC3)CC2)cc1` [compound 77, N-(2-amino-5-(thiophen-2-yl)phenyl)-4-((4-morpholino-piperidin-1-yl)-methyl)-benzamide], the IC50 (on HDAC-1; in series [1]) was less than 1000 nM in each case. This molecule also displayed a logD in series [2] of 2.59.
For the molecule `CN1CCN(Cc2ccc(C(=O)Nc3cc(-c4cccs4)ccc3N)cc2)CC1` [compound 78, N-(2-amino-5-(thiophen-2-yl)phenyl)-4-((4-methylpiperazin-1-yl)methyl)-benzamide], the IC50 (on HDAC-1; in series [1]) was less than 1000 nM each time. The molecule further came in with a logD in series [2] of 2.29.
Consider `CCN(CC)Cc1ccc(C(=O)Nc2cc(-c3cccs3)ccc2N)cc1` [compound 79, N-(2-amino-5-(thiophen-2-yl)phenyl)-4-((diethylamino)-methyl)benzamide], for which the IC50 (at HDAC-1; in series [1]) was less than 1000 nM each time. This molecule showed a logD in series [2] of 3.19.
As for `Nc1ccc(-c2cccs2)cc1NC(=O)c1ccc(CN2CCN(CCn3ccnc3)CC2)cc1` [compound 80, 4-((4-(2-(1H-imidazol-1-yl)ethyl)-piperazin-1-yl)-methyl)-N-(2-amino-5-(thiophen-2-yl)phenyl)-benzamide], the IC50 (at HDAC-1; in series [1]) was less than 1000 nM throughout. The logD in series [2] worked out at 1.54.
Turning to `CN(C)[C@H]1CCN(Cc2ccc(C(=O)Nc3cc(-c4cccs4)ccc3N)cc2)C1` [compound 81, (S)-N-(2-amino-5-(thiophen-2-yl)phenyl)-4-((3-(dimethylamino)-pyrrolidin-1-yl)methyl)-benzamide], the IC50 (at HDAC-1; in series [1]) was less than 1000 nM each time. The logD in series [2] came to 2.11.
Take `Nc1ccc(-c2cccs2)cc1NC(=O)c1ccc(CN2CC[C@H](O)C2)cc1` [compound 82, (S)-N-(2-amino-5-(thiophen-2-yl)phenyl)-4-((3-hydroxy-pyrrolidin-1-yl)methyl)-benzamide]: the half-maximal inhibitory concentration (IC50) (at HDAC-1; in series [1]) was less than 1000 nM in each case. For the same molecule, the pH-dependent lipophilicity (logD) in series [2] is 2.6.
Turning to `Nc1ccc(-c2cccs2)cc1NC(=O)c1ccc(CN2CC[C@@H](O)C2)cc1` [compound 83, (R)-N-(2-amino-5-(thiophen-2-yl)phenyl)-4-((3-hydroxy-pyrrolidin-1-yl)methyl)-benzamide], the IC50 against HDAC-1 is less than 1000 nM; in series [1] it was 1000 to 5000 nM. In addition, the logD in series [2] was 2.6.
On the same counts, the results for `CC(=O)N[C@@H]1CCN(Cc2ccc(C(=O)Nc3cc(-c4cccs4)ccc3N)cc2)C1` [compound 84, (R)-4-((3-acetamido-pyrrolidin-1-yl)methyl)-N-(2-amino-5-(thiophen-2-yl)phenyl)-benzamide] are less than 1000 nM, less than 1000 nM and 2.15.
Take `Nc1ccc(-c2cccs2)cc1NC(=O)c1ccc(CN2CCN(c3ccncc3)CC2)cc1` [compound 85, N-(2-amino-5-(thiophen-2-yl)phenyl)-4-((4-(pyridin-4-yl)piperazin-1-yl)methyl)-benzamide]: the IC50 (against HDAC-1; in series [1]) was less than 1000 nM in each case. The logD in series [2] amounted to 3.32.
`Nc1ccc(-c2cccs2)cc1NC(=O)c1ccc(CN2CCC[C@H]2CN2CCCC2)cc1` [compound 86, (S)-N-(2-amino-5-(thiophen-2-yl)phenyl)-4-((2-(pyrrolidin-1-ylmethyl)-pyrrolidin-1-yl)methyl)-benzamide]: the IC50 (at HDAC-1; in series [1]) was less than 1000 nM each time. Further, the logD in series [2] was 0.86.
With `CC(=O)N[C@H]1CCN(Cc2ccc(C(=O)Nc3cc(-c4cccs4)ccc3N)cc2)C1` [compound 87, (S)-4-((3-acetamido-pyrrolidin-1-yl)methyl)-N-(2-amino-5-(thiophen-2-yl)phenyl)-benzamide], the IC50 (against HDAC-1; in series [1]) was less than 1000 nM each time. The logD in series [2] was 2.15.
Consider `Nc1ccc(-c2cccs2)cc1NC(=O)c1ccc(CN2CCN(c3ccccn3)CC2)cc1` [compound 89, N-(2-amino-5-(thiophen-2-yl)phenyl)-4-((4-(pyridin-2-yl)piperazin-1-yl)methyl)-benzamide], for which the 50% inhibitory concentration (IC50) (against HDAC-1; in series [1]) was less than 1000 nM throughout. Moreover, in series [2], the logD was 3.38.
With `Nc1ccc(-c2cccs2)cc1NC(=O)c1ccc(CN2CCCC2)cc1` [compound 90, N-(2-amino-5-(thiophen-2-yl)phenyl)-4-(pyrrolidin-1-ylmethyl)-benzamide], the IC50 (against HDAC-1; in series [1]) was less than 1000 nM each time. The molecule further displayed a logD in series [2] of 3.15.
In the case of `Nc1ccc(-c2cccs2)cc1NC(=O)c1ccc(CN2CCN(Cc3ccccc3)CC2)cc1` [compound 91, N-(2-amino-5-(thiophen-2-yl)phenyl)-4-((4-benzylpiperazin-1-yl)methyl)-benzamide], the IC50 (on HDAC-1; in series [1]) was less than 1000 nM each time. In series [2], this molecule showed a logD of 4.01.
On to `CN(C)[C@H]1CCN(c2ccc(C(=O)Nc3cc(-c4cccs4)ccc3N)cc2)C1` [compound 101, (S)—N-(2-Amino-5-(thiophen-2-yl)phenyl)-4-(3-(dimethylamino)pyrrolidin-1-yl)benzamide], for which the IC50 (on HDAC-1; in series [1]) was less than 1000 nM in each case. The same molecule had a logD in series [2] of 1.94.
As to `CCN(CC)CCSc1ccc(C(=O)Nc2cc(-c3cccs3)ccc2N)cc1` [compound 107, N-(2-amino-5-(thiophen-2-yl)phenyl)-4-(2-(diethyl-amino)-ethylthio)-benzamide], on HDAC-1, the IC50 was less than 1000 nM. Moreover, in series [2], the logD was 2.58.
On the same counts, the results for `Nc1ccc(-c2cccs2)cc1NC(=O)N1CCN(Cc2ccc3c(c2)OCO3)CC1` [compound 316, N-(2-Amino-5-(thiophen-2-yl)phenyl)-4-(benzo[d][1,3]dioxol-5-ylmethyl)piperazine-1-carboxamide] are less than 1000 nM and 2.32.
On the same counts, the results for `Nc1ccc(-c2ccccc2)cc1NC(=O)C1CCN(S(=O)(=O)c2ccc([N+](=O)[O-])cc2)CC1` [compound 320, N-(4-Aminobiphenyl-3-yl)-1-(4-nitrophenylsulfonyl)piperidine-4-carboxamide] are less than 1000 nM and 3.21.

For the origin of these results see patent publication US8598168B2 (MethylGene Inc., priority 2006, dated 2013).
